Like-named read-outs stand apart in the source and are kept apart here.
What was measured:
[1] = molecular target: Kv11.1 (hERG) channel (Homo sapiens (Human), UniProt Q12809); test: Kv11.1 ion channel binding assay (Predictor hERG fluorescence polarisation); conditions: class symbol marked with asterisk (*)
Protocol: D) Kv11.1 Ion Channel Binding Assay
Kv11.1 (hERG=human ether a go-go related […]) is a cardiac K^+ channel which should if possible not interact with the test substances. This interaction is determined quantitatively with the aid of the Predictor™ hERG Fluorescence Polarizations (FP) Assays from Life Technologies. In the case of this assay principle, cardiomyocyte cell membranes having a certain proportion of Kv11.1 channels are isolated. A dye-labelled Kv11.1 binding partner gives a high fluorescence polarisation signal by interaction with the Kv11.1. In the case of displacement of the dye, a reduction in the fluorescence polarisation signal occurs.
The assay is carried out automatically as follows: 15 nl of the test substances (highest concentration: 10 mM, 10 concentrations: dilution factors 1:3.16, DMSO) are transferred into an empty microtitre plates having 384 wells by means of an acoustic pipetter. 3 μl of the isolated membranes are subsequently added. Membranes and test substances are incubated at 22° C. for 15 min (+/−5 min). In the next step, the dye-labelled binding partner is added, followed by incubation at 22° C. After incubation for two hours, the measurement of the fluorescence polarisation is carried out on an Envision multimode Reader. Measured raw data are standardised with the aid of Genedata Assay Analyzer. The IC50 and % effect values are calculated in Genedata Condoseo.

[2] = system: phospho-serine 2056 DNA-PK in HCT116 cells; test: DNA-PK phosphorylation at serine 2056 (cellular), ELISA in bleomycin-treated HCT116 cells; format: cell-based; conditions: read-out: IC50 pDNA-PK
In short: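 After overnight seeding, HCT116 cells received compound with 10 μM bleomycin for 6 h; phospho-DNA-PK ELISA signals were scaled to total DNA-PKcs, DMSO serving as blank.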

[3] = phospho-serine 2056 DNA-PK, bleomycin-treated HCT116 cells
[4] = Homo sapiens, HCT-116, phospho-serine 2056 DNA-PK, bleomycin-treated HCT116 cells

Sequence of Kv11.1 (hERG) channel (Q12809 whole entry): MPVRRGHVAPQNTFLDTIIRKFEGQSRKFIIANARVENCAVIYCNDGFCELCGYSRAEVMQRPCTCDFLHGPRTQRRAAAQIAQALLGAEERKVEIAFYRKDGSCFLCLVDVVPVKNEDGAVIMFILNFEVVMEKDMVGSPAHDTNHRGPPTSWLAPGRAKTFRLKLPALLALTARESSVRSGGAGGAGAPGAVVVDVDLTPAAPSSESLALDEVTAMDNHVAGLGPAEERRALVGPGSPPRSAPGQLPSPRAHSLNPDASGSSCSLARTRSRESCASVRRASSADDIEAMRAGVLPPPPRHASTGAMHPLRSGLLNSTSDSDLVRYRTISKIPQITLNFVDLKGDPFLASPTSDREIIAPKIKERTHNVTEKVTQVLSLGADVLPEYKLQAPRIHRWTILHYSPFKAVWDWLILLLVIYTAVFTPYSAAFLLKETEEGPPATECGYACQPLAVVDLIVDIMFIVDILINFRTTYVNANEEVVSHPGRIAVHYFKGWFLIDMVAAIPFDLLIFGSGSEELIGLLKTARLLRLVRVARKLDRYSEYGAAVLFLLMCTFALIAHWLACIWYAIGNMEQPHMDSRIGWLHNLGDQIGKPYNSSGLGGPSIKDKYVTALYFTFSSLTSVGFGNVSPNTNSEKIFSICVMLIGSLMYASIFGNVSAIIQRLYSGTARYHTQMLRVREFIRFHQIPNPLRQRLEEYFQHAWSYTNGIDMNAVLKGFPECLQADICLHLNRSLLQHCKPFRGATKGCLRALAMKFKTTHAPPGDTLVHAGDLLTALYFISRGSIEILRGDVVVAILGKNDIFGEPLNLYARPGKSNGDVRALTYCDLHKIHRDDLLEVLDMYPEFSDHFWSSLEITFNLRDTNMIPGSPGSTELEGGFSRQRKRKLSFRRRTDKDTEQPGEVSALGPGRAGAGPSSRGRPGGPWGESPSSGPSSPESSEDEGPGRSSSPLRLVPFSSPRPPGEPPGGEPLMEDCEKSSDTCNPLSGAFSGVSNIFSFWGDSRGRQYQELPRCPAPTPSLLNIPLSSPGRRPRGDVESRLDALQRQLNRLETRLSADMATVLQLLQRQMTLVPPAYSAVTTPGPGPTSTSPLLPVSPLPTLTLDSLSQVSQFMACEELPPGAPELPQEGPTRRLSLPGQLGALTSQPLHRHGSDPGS

SMILES | IC50 [2, 3] [µM] | IC50 [2, 4] [µM] | Ki [Kv1.11 hERG] [1] | further results
COC(c1ccc(F)c(-c2ncnc3cc(N4CCOCC4)ccc23)c1)c1nccnc1C (stereo not shown) [Example 352] |  |  | A* | 
COc1nnc(Cl)cc1C(O)c1ccc(F)c(-c2ncnc3cc(N4CCOCC4)ccc23)c1 (stereo not shown) [Example 286, (6-Chloro-3-methoxy-pyridazin-4-yl)-[4-fluoro-3-(7-morpholin-4-yl-quinazolin-4-yl)-phenyl]methanol (Ena 1)] |  | 5 to 10 | A* | 
Cc1nccnc1C(C(N)=O)c1ccc(F)c(-c2ncnc3cc(N4CCOCC4)sc23)c1 (stereo not shown) [Example 270, 2-[4-Fluoro-3-(6-morpholin-4-yl-thieno[3,2-d}-pyrimidin-4-yl)-phenyl]-2-(3-methyl-pyrazin-2-yl)-acetamide] |  | 5 to 10 | A* | 
CNC(=O)C(c1ccc(F)c(-c2ncnc3cc(N4CCOCC4)ccc23)c1)c1ncccc1Cl (stereo not shown) [Example 230, 2-(3-Chloro-pyridin-2-yl)-2-[4-fluoro-3-(7-morpholin-4-yl-quinazolin-4-yl)-phenyl]-N-methyl-acetamide] | 5 to 10 |  | B* | 
COc1ccc(C(O)c2ccc(F)c(-c3ncnc4cc(N5CCOCC5)cc(F)c34)c2)nn1 (stereo not shown) [Example 255, [4-Fluoro-3-(5-fluoro-7-morpholin-4-yl-quinazolin-4-yl)-phenyl]-(6-methoxy-pyridazin-3-yl)-methanol] |  | < 0.5 | A* | 
COc1nccnc1C(O)c1cc(-c2ncnc3cc(N4CCOCC4)cc(F)c23)c(F)cc1Cl (stereo not shown) [Example 250, [2-Chloro-4-fluoro-5-(5-fluoro-7-morpholin-4-yl-quinazolin-4-yl)-phenyl]-(3-methoxy-pyrazin-2-yl)-methanol] | < 0.5 |  | A* | 
Fc1cc(Cl)c(Cc2ccc3nccn3n2)cc1-c1ncnc2cc(N3CCOCC3)ccc12 [Example 235, 4-(4-Chloro-2-fluoro-5-imidazo[1,2-b]-pyridazin-6-ylmethyl-phenyl)-7-morpholin-4-ylquinazoline] |  | < 0.5 | A* | 
CNC(=O)C(c1ccc2nccn2n1)c1cc(-c2ncnc3cc(N4CCOCC4)ccc23)c(F)cc1Cl (stereo not shown) [Example 236, 2-[2-Chloro-4-fluoro-5-(7-morpholin-4-yl-quinazolin-4-yl)-phenyl]-2-imidazo-[1,2-b]pyridazin-6-yl-N-methylacetamide] |  | 5 to 10 | A* | 
COc1nccnc1C(O)c1ccc(F)c(-c2ncnc3cc(N4CCOCC4)cc(F)c23)c1 (single isomer, unassigned) [Example 253, [4-Fluoro-3-(5-fluoro-7-morpholin-4-yl-quinazolin-4-yl)-phenyl]-(3-methoxy-pyrazin-2-yl)-methanol] |  |  | A* | 
Cc1nccnc1C(O)c1ccc(F)c(-c2ncnc3cc(N4CCOCC4)sc23)c1 (stereo not shown) [Example 246, [4-Fluoro-3-(6-morpholin-4-yl-thieno[3,2-d}-pyrimidin-4-yl)-phenyl]-(3-methyl-pyrazin-2-yl)-methanol] |  |  | A* | 
NC(=O)C(c1ccc(F)c(-c2ncnc3cc(N4CCOCC4)ccc23)c1)c1nncc2ccsc12 (stereo not shown) [Example 284, 2-[4-Fluoro-3-(7-morpholin-4-yl-quinazolin-4-yl)-phenyl]-2-thieno-[2,3-d}pyridazin-7-yl-acetamide] |  |  | A* | 
COc1ccc(C(O)c2cc(-c3ncnc4cc(N5CCOCC5)cc(F)c34)c(F)cc2Cl)nn1 (single isomer, unassigned) [Example 263, [2-Chloro-4-fluoro-5-(5-fluoro-7-morpholin-4-yl-quinazolin-4-yl)-phenyl]-(6-methoxy-pyridazin-3-yl)-methanol] |  |  | A* | 
OC(c1cccnn1)c1cc(-c2ncnc3cc(N4CCOCC4)ccc23)c(F)cc1F (stereo not shown) [Example 48, [2,4-Difluoro-5-(7-morpholin-4-yl-quinazolin-4-yl)phenyl]-pyridazin-3-ylmethanol] |  |  |  | IC50 ([2]; Homo sapiens, HCT-116, 6 h, cellular, HCT116 cells, 10 μM bleomycin, six hours): 0.5 to 5 µM
CC(O)(c1cncc(-c2ncnc3cc(N4CCOCC4)ccc23)c1)c1nccs1 (stereo not shown) [Example 152, 1-[5-(7-Morpholin-4-ylquinazolin-4-yl)-pyridin-3-yl]-1-thiazol-2-ylethanol] |  |  |  | IC50 ([2]; Homo sapiens, HCT-116, phospho-serine 2056 DNA-PK, bleomycin-treated HCT116 cells, class symbols A-D): 10 to 30 µM

Further lines, with some results ahead:

IC50 [2, 3] [µM] | IC50 [2, 4] [µM] | SMILES | Ki [Kv1.11 hERG] [1] | further results
< 0.5 |  | Cc1nccnc1C(O)c1ccc(F)c(-c2ncnc3cc(N4CCOCC4)sc23)c1 (stereo not shown) [Example 265, [4-Fluoro-3-(6-morpholin-4-yl-thieno[3,2-d}-pyrimidin-4-yl)-phenyl]-(3-methyl-pyrazin-2-yl)-methanol] | A* | 
 | 10 to 30 | NC(=O)C(c1ccc(F)c(-c2ncnc3cc(N4CCOCC4)ccc23)c1)c1nccn2ncnc12 (stereo not shown) [Example 280, 2-[4-Fluoro-3-(7-morpholin-4-yl-quinazolin-4-yl)-phenyl]-2-[1,2,4]-triazolo[1,5-a]-pyrazin-8-yl-acetamide] | A* | 
< 0.5 |  | [2H]C1([2H])OC([2H])([2H])C([2H])([2H])N(c2ccc3c(-c4cc(C(O)c5ccc(OC)nn5)c(Cl)cc4F)ncnc3c2)C1([2H])[2H] (stereo not shown) [Example 262, [2-Chloro-4-fluoro-5-[7-(2,2,3,3,5,5,6,6-octadeuterio-morpholin-4-yl)quinazolin-4-yl]phenyl]-(6-methoxypyridazin-3-yl)methanol] | A* | 
< 0.5 |  | [2H]C1([2H])OC([2H])([2H])C([2H])([2H])N(c2ccc3c(-c4cc(C(O)c5nccnc5C)ccc4F)ncnc3c2)C1([2H])[2H] (stereo not shown) [Example 259, [4-Fluoro-3-[7-(2,2,3,3,5,5,6,6-octadeuterio-morpholin-4-yl)quinazolin-4-yl]phenyl]-(3-methyl-pyrazin-2-yl)-methanol] | A* | 
 | < 0.5 | Cc1nccnc1C(O)c1cc(-c2ncnc3cc(N4CCOCC4)sc23)c(F)cc1Cl (stereo not shown) [Example 264, [2-Chloro-4-fluoro-5-(6-morpholin-4-yl-thieno[3,2-d}-pyrimidin-4-yl)-phenyl]-(3-methyl-pyrazin-2-yl)-methanol] | A* | 
< 0.5 |  | COc1nccnc1C(O)c1ccc(F)c(-c2ncnc3cc(N4CCOCC4)cc(F)c23)c1 (stereo not shown) [Example 267, [4-Fluoro-3-(5-fluoro-7-morpholin-4-yl-quinazolin-4-yl)-phenyl]-(3-methoxy-pyrazin-2-yl)-methanol] | A* | 
< 0.5 |  | COc1nccnc1C(O)c1ccc(F)c(-c2ncnc3cc(N4CCOCC4)cc(F)c23)c1 (stereo not shown) [Example 252, [4-Fluoro-3-(5-fluoro-7-morpholin-4-yl-quinazolin-4-yl)-phenyl]-(3-methoxy-pyrazin-2-yl)-methanol] | A* | 
 | 0.5 to 5 | COc1ccc(C(C(N)=O)c2cc(-c3ncnc4cc(N5CCOCC5)sc34)c(F)cc2Cl)nn1 (stereo not shown) [Example 272, 2-[2-Chloro-4-fluoro-5-(6-morpholin-4-yl-thieno[3,2-d}-pyrimidin-4-yl)-phenyl]-2-(6-methoxy-pyridazin-3-yl)acetamide] | A* | 

Reference: US11065253B2, “Arylquinazolines” (Merck Patent GmbH, priority 2013, dated 2021)
